The values that follow come from patent US11173137B2, “Compositions and methods to modulate chloride ion channel activity” (The Board of Trustees of the Leland Stanford Junior …, priority 2018, dated 2021).

SMILES strings stand for the structures. Several values for one entry are separate records, joined by “and”; a condition that tells them apart may be missing. Identical values can stand only once. Like-named read-outs stand apart in the source and are kept apart here.

The target in test [1] is T1, CLC-2 (Homo sapiens (Human), UniProt P51788). Kind of test: IonWorks Barracuda automated patch-clamp electrophysiology, human CLC-2 cell line. It counts as cell-based. Particulars: for % inhibition at the concentration listed (in parenthesis): CLC-2, at the concentration listed in the IC50 cell, negative = increase in peak current. The text has this: FIG. 8, panels A and B depict graphically the Selectivity between CLC-1 and CLC-2. […]
(The patch-clamp technique gives a direct electrical read-out from membranes.)

In another test the target is CLC-1 (Homo sapiens (Human), UniProt P35523). Nature of the test: IonWorks Barracuda automated patch-clamp electrophysiology, CLC-1. It counts as cell-based. Particulars: for IC50: Table 2. As for the experimental part: If the IC50 was greater than the highest concentration tested, this concentration is listed along with the percent inhibition at this concentration (in parenthesis).
FIG. 8, panels A and B depict graphically the Selectivity between CLC-1 and CLC-2. […] Data points represent the mean current block at 16 different FA44 concentrations (n=4-8), using the IonWorks™ Barracuda. […] Panel B depicts a summary graph showing the mean inhibition of CLC-1 (left bar) or CLC-2 (right bar) current at 30 μM, illustrating the improvement in both selectivity and potency from the hit compound MCFA to the exemplary compound FA44.

Test [2] addresses T1, CLC-2. Particulars: cited from earlier work.
Setting [3] is: n = 4 cells, four concentrations of each compound, IonWorks Barracuda, read-out: IC50 (μM) against CLC-2.
Where [4] appears, read: Table 2, read-out: IC50 (CLC-2).

T1 sequence (P51788 whole entry): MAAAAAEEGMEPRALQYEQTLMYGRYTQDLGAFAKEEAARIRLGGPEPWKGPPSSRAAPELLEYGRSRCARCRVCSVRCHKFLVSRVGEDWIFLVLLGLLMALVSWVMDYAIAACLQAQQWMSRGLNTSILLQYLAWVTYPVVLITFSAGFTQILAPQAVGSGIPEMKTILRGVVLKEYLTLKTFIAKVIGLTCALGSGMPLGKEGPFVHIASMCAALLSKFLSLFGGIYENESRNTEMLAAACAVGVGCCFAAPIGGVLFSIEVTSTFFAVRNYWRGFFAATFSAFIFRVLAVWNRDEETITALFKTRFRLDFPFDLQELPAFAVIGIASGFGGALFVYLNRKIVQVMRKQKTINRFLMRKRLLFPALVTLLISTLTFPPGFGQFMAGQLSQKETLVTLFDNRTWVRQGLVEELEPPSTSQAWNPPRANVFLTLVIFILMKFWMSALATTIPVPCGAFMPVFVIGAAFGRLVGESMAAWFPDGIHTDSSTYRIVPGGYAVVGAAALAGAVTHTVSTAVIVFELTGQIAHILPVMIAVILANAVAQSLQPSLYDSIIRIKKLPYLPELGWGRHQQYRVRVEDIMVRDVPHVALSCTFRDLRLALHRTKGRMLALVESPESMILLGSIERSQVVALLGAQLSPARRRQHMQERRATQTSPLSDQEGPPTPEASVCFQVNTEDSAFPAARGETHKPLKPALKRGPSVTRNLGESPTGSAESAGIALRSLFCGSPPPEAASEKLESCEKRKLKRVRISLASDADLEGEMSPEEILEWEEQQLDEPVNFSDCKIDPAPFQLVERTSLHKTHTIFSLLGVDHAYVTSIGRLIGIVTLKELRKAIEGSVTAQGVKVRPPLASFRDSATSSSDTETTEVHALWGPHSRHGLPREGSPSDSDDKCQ
CLC-1, sequence (P35523 whole entry): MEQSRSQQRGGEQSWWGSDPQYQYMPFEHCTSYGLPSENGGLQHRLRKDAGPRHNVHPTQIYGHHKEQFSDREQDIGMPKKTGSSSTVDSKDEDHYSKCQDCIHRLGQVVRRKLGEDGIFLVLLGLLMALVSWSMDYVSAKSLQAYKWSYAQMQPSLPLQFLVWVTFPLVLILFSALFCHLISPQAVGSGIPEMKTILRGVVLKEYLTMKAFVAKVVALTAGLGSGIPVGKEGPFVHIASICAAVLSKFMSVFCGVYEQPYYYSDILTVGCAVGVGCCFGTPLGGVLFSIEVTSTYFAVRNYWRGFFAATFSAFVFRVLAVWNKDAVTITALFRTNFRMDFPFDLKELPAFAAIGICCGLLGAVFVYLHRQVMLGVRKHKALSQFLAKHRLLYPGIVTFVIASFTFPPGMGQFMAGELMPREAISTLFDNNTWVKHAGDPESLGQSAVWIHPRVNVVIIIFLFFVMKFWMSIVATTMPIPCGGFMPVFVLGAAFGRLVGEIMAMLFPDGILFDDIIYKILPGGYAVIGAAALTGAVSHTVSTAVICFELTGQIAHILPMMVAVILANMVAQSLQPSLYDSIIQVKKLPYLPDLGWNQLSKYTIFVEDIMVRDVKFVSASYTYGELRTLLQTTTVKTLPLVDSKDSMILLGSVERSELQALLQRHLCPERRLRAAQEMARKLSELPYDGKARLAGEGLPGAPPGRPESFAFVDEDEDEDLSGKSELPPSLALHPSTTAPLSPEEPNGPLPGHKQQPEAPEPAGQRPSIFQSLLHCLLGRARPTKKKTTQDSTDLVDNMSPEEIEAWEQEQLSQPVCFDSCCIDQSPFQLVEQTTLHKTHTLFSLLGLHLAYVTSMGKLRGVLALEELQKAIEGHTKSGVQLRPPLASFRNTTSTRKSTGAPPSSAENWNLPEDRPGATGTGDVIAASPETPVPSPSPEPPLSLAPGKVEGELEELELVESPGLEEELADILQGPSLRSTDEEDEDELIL

On to `O=C(O)c1ccccc1Nc1ccc(Cl)cc1Cl` [AK2-200A], for which the “% inhibition at the concentration listed (in parenthesis)” value (shortened to “% inhibition”) at CLC-2 [1] is “(13%)”. The IC50 on CLC-2 [1] (setting [3]) was above 120 µM.
Taken in the same sequence, the figures for `O=C(O)c1ccccc1Nc1ccc(Cl)c(Cl)c1` [AK2-200B] were “(12%)” and above 120 µM.
Taken in the same sequence, the figures for `Cc1cccc(Nc2ccccc2C(=O)O)c1Cl` [AK2-200C] were “(43%)” and above 120 µM.
Regarding `O=C(O)c1ccccc1Nc1c(Cl)cccc1Cl` [AK2-209A], the IC50 at CLC-2 [1] (setting [3]) turned out to be 22.1 µM.
Take `O=C(O)c1ccccc1Nc1cc(Cl)ccc1Cl` [AK2-209B]: at CLC-2 [1], the “% inhibition” value is on record as “(23%)”. Further, on CLC-2 [1] (setting [3]), the IC50 was above 120 µM.
Taken in the same sequence, the figures for `Cc1ccc(Cl)c(Nc2ccccc2C(=O)O)c1` [AK2-214A] were “(48%)” and above 120 µM.
In the same order, the values of `O=C(O)c1ccccc1Nc1c(Cl)cc(Cl)cc1Cl` [AK2-214B] are “(22%)” and above 120 µM.
Taken in the same sequence, the figures for `O=C(O)c1ccccc1Nc1c(F)cccc1F` [AK2-214C] were “(41%)” and above 120 µM.
In the case of `Cc1ccc(Cl)c(Nc2ccccc2OS(=O)(=O)O)c1Cl` [AK2-262], the “% inhibition” value on CLC-2 [1] is listed as “(28%)”. Moreover, at CLC-2 [1] (setting [3]), the IC50 was above 120 µM.
For the molecule `O=C(O)c1ccccc1Nc1c(Cl)ccc(C(F)(F)F)c1Cl` [AK2-270A], the IC50 on CLC-2 [1] (setting [3]) was 35.7 µM.
On to `O=C(O)c1cccc2c1[nH]c1c(Cl)ccc(C(F)(F)F)c12` [AK2-270B], for which the “% inhibition” value at CLC-2 [1] is “(−48%)”. In addition, on CLC-2 [1] (setting [3]), the IC50 was above 120 µM.
`Cc1ccc(C(=O)O)c(Nc2c(Cl)ccc(C)c2Cl)c1` [AK2-288A]: at CLC-2 [1] (setting [3]), the IC50 came out at 24.7 µM.
For the molecule `Cc1ccc(Cl)c(Nc2cccc(C)c2C(=O)O)c1Cl` [AK2-288C], the “% inhibition” value at CLC-2 [1] was “(37%)”. For the same molecule, on CLC-2 [1] (setting [3]), the IC50 was above 102 µM.
As to `COc1ccc(Cl)c(Nc2ccccc2C(=O)O)c1Cl` [AK2-289A], the IC50 on CLC-2 [1] (setting [3]) stood at 9.86 µM.
Same read-out and setting: as for `C=C(C)c1ccc(Cl)c(Nc2ccccc2C(=O)O)c1Cl` [AK2-289B], the figure is 7.16 µM; as for `Cc1cccc(C)c1Nc1ccccc1C(=O)O` [AK2-289C], 23.4 µM.
In the case of `CCc1ccc(Cl)c(Nc2ccccc2C(=O)O)c1Cl` [AK2-292], on CLC-2 [1] (setting [3]), the IC50 came to 7.69 µM.
Still for that read-out and setting: to `Cc1ccc(Cl)c(Nc2ccccc2-c2nnn[nH]2)c1Cl` [AK3-89] belongs 33.4 µM.
Take `Cc1ccc(Cl)c(Nc2cccc(C(=O)O)c2)c1Cl` [AK3-97A]: on CLC-2 [1], the “% inhibition” value is on record as “(36%)”. For the same molecule, at CLC-2 [1] (setting [3]), the IC50 was above 141 µM.
Taken in the same sequence, the figures for `Cc1ccc(Cl)c(Nc2ccc(C(=O)O)cc2)c1Cl` [AK3-97B] were “(8%)” and above 144 µM.
On to `CCc1cccc(CC)c1Nc1ccccc1C(=O)O` [AK3-97C], for which the IC50 on CLC-2 [1] (setting [3]) came to 86.3 µM.
Same read-out and setting: as for `Cc1ccc(Cl)c(Nc2cc(F)ccc2C(=O)O)c1Cl` [AK3-98A], the figure is 13.7 µM.
As for `Cc1ccc(Cl)c2[nH]c3c(C(=O)O)ccc(F)c3c12` [AK3-98B], the “% inhibition” value on CLC-2 [1] is listed as “(−16%)”. Further, the IC50 on CLC-2 [1] (setting [3]) was above 69 µM.
`COCOc1ccc(Cl)c(Nc2ccccc2C(=O)O)c1Cl` [AK3-99A]: the IC50 at CLC-2 [1] (setting [3]) worked out at 2.04 µM.
Same read-out and setting: to `O=C(O)c1ccccc1Nc1c(Cl)ccc(-c2ccccc2)c1Cl` [AK3-100A] belongs 12.6 µM; to `O=C(O)c1ccccc1Nc1c(Cl)ccc(OCC2CCCCC2)c1Cl` [AK3-101A], 2.98 µM; to `COc1ccccc1-c1ccc(Cl)c(Nc2ccccc2C(=O)O)c1Cl` [AK3-101B], 5.29 µM.
In the case of `O=C(O)c1ccccc1Nc1c(Cl)ccc(O)c1Cl` [AK3-102A], the IC50 at CLC-2 [1] (setting [3]) worked out at 3.6 µM.
On the same count and under the same terms, to `O=C(O)c1ccccc1Nc1c(Cl)ccc(C2=CCCCC2)c1Cl` [AK3-103B] belongs 48.8 µM.
Turning to `Cc1ccc(Cl)c(Nc2cccnc2C(=O)O)c1Cl` [AK3-107A], on CLC-2 [1], the “% inhibition” value is “(12%)”. Besides, at CLC-2 [1] (setting [3]), the IC50 was above 222 µM.
Taken in the same sequence, the figures for `Cc1ccc(Cl)c(Nc2ccncc2C(=O)O)c1Cl` [AK3-107B] were “(16%)” and above 42 µM.
As for `Cc1ccc(Cl)c(Nc2cnccc2C(=O)O)c1Cl` [AK3-108A], on CLC-2 [1] (setting [3]), the IC50 turned out to be 115 µM.
Consider `Cc1ccc(Cl)c(Nc2ncccc2C(=O)O)c1Cl` [AK3-108B], for which the IC50 is above 30 µM on CLC-1, 4 ± 0.7 µM at CLC-2 [1] (setting [4]) and 1.79 µM at CLC-2 [1] (setting [3]). Further, the “percent inhibition of CLC-1 at highest concentration tested (in parenthesis)” value on CLC-1 (at the concentration listed in the same cell) was 5%.
In the case of `Cc1ccc(Cl)c(Nc2ccccc2P(=O)(O)O)c1Cl` [AK3-118], at CLC-2 [1], the “% inhibition” value is “(6%)”. The IC50 on CLC-2 [1] (setting [3]) was above 195 µM.
As for `CCOP(=O)(O)c1ccccc1Nc1c(Cl)ccc(C)c1Cl` [AK3-119], the “% inhibition” value on CLC-2 [1] is “(41%)”. The IC50 on CLC-2 [1] (setting [3]) is above 354 µM.
Turning to `Cc1ccc(Cl)c(Nc2ccccc2C(N)=O)c1Cl` [AK3-124], the IC50 at CLC-2 [1] (setting [3]) was determined as 42.4 µM.
`NC(=O)c1ccc(COc2ccc(Cl)c(Nc3ccccc3C(=O)O)c2Cl)cc1` [AK3-219]: the “% inhibition” value at CLC-2 [1] is recorded as “(15%)”. For the same molecule, at CLC-2 [1] (setting [3]), the IC50 was above 120 µM.
Taken in the same sequence, the figures for `O=C(O)c1ccc(COc2ccc(Cl)c(Nc3ccccc3C(=O)O)c2Cl)cc1` [AK3-224] were “(4%)” and above 120 µM.
Taken in the same sequence, the figures for `NC(=O)c1ccccc1COc1ccc(Cl)c(Nc2ccccc2C(=O)O)c1Cl` [AK3-225] were “(0%)” and above 120 µM.
Taken in the same sequence, the figures for `NC(=O)c1cccc(COc2ccc(Cl)c(Nc3ccccc3C(=O)O)c2Cl)c1` [AK3-226] were “(5%)” and above 120 µM.
On to `CC(=O)Nc1cccc(COc2ccc(Cl)c(Nc3ccccc3C(=O)O)c2Cl)c1` [AK3-227], for which the IC50 on CLC-2 [1] (setting [3]) came out at 81.9 µM.
Still for that read-out and setting: as for `O=C(O)c1cccc(COc2ccc(Cl)c(Nc3ccccc3C(=O)O)c2Cl)c1` [AK3-239], the figure is 17.9 µM; as for `O=C(O)c1ccccc1COc1ccc(Cl)c(Nc2ccccc2C(=O)O)c1Cl` [AK3-250], 67.8 µM.
As for `O=C(O)c1cccc2c1[nH]c1c(Cl)ccc(OCc3ccccc3)c12` [AK3-251], on CLC-2 [1], the “% inhibition” value was “(5%)”. Moreover, the IC50 at CLC-2 [1] (setting [3]) is above 120 µM.
On to `O=C(O)c1ccccc1Nc1c(Cl)ccc(OCc2ccccc2F)c1Cl` [AK3-261], for which the IC50 on CLC-2 [1] (setting [3]) stood at 1.16 µM.
On the same count and under the same terms, as for `O=C(CCCC[C@@H]1SC[C@@H]2NC(=O)N[C@@H]21)NCCOCCOCCOCCOCCC(=O)NCCOc1ccc(Cl)c(Nc2ccccc2C(=O)O)c1Cl` [AK3-294], the figure is 77.1 µM.
Regarding `NCCOc1ccc(Cl)c(Nc2ccccc2C(=O)O)c1Cl` [AK3-296], the “% inhibition” value at CLC-2 [1] was “(7%)”. The IC50 at CLC-2 [1] (setting [3]) was above 120 µM.
With `O=C(O)c1c2ccccc2cc2ccccc12` [Compound 9-AC], the “potency of previously reported small-molecule inhibitors of CLC-2” value on CLC-2 [2] is “mM range”.
Take `O=S(=O)(O)c1cc(N=C=S)ccc1C=Cc1ccc(N=C=S)cc1S(=O)(=O)O` [DIDS]: the “potency of previously reported small-molecule inhibitors of CLC-2” value on CLC-2 [2] was “mM range”.
In the case of `O=C(O)c1ccccc1Nc1ccccc1` [DPC, reference compound], the “potency of previously reported small-molecule inhibitors of CLC-2” value at CLC-2 [2] is recorded as “mM range”. On CLC-2 [1], the “% inhibition” value is reported as “(27%)”. The IC50 on CLC-2 [1] (setting [3]) was above 312 µM.
Take `Cc1cccc(COc2ccc(Cl)c(Nc3ccccc3C(=O)O)c2Cl)c1` [EEGI-054]: the IC50 on CLC-2 [1] (setting [3]) turned out to be 7.93 µM.
The same measure, in the same setting: as for `Cc1ccccc1COc1ccc(Cl)c(Nc2ccccc2C(=O)O)c1Cl` [EEGI-055], the figure is 1.2 µM.
Same read-out and setting: to `Cc1ccc(COc2ccc(Cl)c(Nc3ccccc3C(=O)O)c2Cl)cc1` [EEGI-056] belongs 15.8 µM.
For the molecule `O=C(O)c1ccccc1Nc1c(Cl)ccc(OCCc2ccccc2)c1Cl` [EEGI-060], the IC50 on CLC-2 [1] (setting [3]) was 7.32 µM.
As to `Cc1ccc(Cl)c(Nc2ccccc2C(=O)O)c1Cl` [MCFA, meclofenamate, reference compound], the IC50 against CLC-1 was 60 ± 9 µM; at CLC-2 [1] (setting [4]), 8.7 ± 0.3 µM; on CLC-2 [1] (setting [3]) it was 14 µM and 13.9 µM.
Consider `O=C(O)c1cccnc1Nc1cccc(C(F)(F)F)c1` [NFA, reference compound], for which, at CLC-2 [1], the “% inhibition” value was “(0%)”. The IC50 at CLC-2 [1] (setting [3]) was above 120 µM.
On to `O=C(O)c1cc([N+](=O)[O-])ccc1NCCCc1ccccc1` [NPPB], for which the “potency of previously reported small-molecule inhibitors of CLC-2” value at CLC-2 [2] is recorded as “mM range”.

The IC50 is the concentration that inhibits the measured activity by half.
